Here are results for one molecule from US20250249051A1, “MICROBIOME COMPOSITION FOR IMPROVING MUSCLE STRENGTH USING HEAT-TREATED FERMENTED CULTURE COMPLEX OF LACTIPLANTIBACILLUS PLANTARUM KM2” (KOOKMINBIO, CORP., priority 2024, published 2025).

The test system of series [1] is C57BL/6J mice. Briefly: Body weight and body composition (DEXA) in dexamethasone-induced muscular atrophy mice. The class given is in vivo. Particulars: week 7, oral; KLP-KM2 900 and 1800 mg/kg, OXM 50 mg/kg; vs DEX group. On the procedure:
(§1) 7-week-old male C57BL/6J mice purchased from OrientBio were used as experimental animals. The environment of an animal breeding room was controlled at temperature of 21±1° C. with relative humidity of 40˜60% and light/dark cycles of 12 hours/day, and feed and drinking water were allowed to be consumed freely. This test was approved by the Institutional Animal Care and Use Committee in Kookmin University (KMU-2023-05) and carried out in accordance with the standard operating instructions. […] Feed ingestion amount and body weight were measured once every two weeks.
Dual energy X-ray absorptiometry (DEXA; Medikors, Seongnam, Korea) was used at week 7 before the sacrifice of experimental animals to measure the body composition of mice, followed by analysis on the changes in muscle mass relative to the body weight.

For series [2], the system named is C57BL/6J mice. Briefly: Biochemical analysis of serum in dexamethasone-induced muscular atrophy mice. The series is classed as in vivo. Particulars: oxymetholone 50 mg/kg oral 8 weeks, DEX mice. On the procedure:
as §1
After sacrificing the mice, blood was drawn from the heart and immediately centrifuged (3,000×g, 10 min, 4° C.) to separate the plasma. Creatine phosphokinase (CPK), lactate dehydrogenase (LDH), aspartate aminotransferase (AST), alanine aminotransferase (ALT), and blood urea nitrogen (BUN) were measured using a chemical analyzer (Fuji DRI-CHEM 3500i, Fuji Photo Film, Ltd., Tokyo, Japan).

A further series concerns intestinal microflora. Briefly: Intestinal microflora analysis in animal model (shotgun metagenome sequencing). The class given is in vivo, mice. Particulars: genus level, compared to the DEX group. On the procedure: as §1
To identify the effect of the sample on the intestinal microbiota of the animal model, the appendix was removed after animal sacrifice, DNA was extracted, and analysis was performed using Shotgun metagenome sequencing. The extracted DNA was subjected to adapter ligation using the Truseq Nano DNA prep kit for sequencing, and then 8 cycles of PCR were performed to create a library. […] Using Trimmomatic v0.39 (AM Bolger, M Lohse, B Usadel, 2014) for raw reads, removal of low-quality reads and adapters was followed, and in order to eliminate PhiX sequences added during sequencing, trimmed reads were aligned to the PhiX reference genome (NC_001422.1) using BWA v0.7.17-r1188 (Li, Heng, 2013) and then removed with SAMtools v1.15.1 (Li, Heng, et al., 2009). […]

Marks after values point to notes of the source that are not given here.

As to `C[C@]12C/C(=C/O)C(=O)C[C@@H]1CC[C@@H]1[C@@H]2CC[C@@]2(C)[C@H]1CC[C@]2(C)O` [OXM, oxymetholone], in the series with C57BL/6J mice [1], the “muscle mass to the total body weight (DEXA)” value is reported as “relatively significant increase compared to the DEX group”. Besides, in the series on C57BL/6J mice [2], the ALT is listed as 43.75 ± 7.96 ^a U/L, the AST is on record as 58.88 ± 11.73 ^a U/L, the BUN is 24.74 ± 1.47 ^a mg/dL and the CPK was 99.13 ± 35.13 ^b U/L. Besides, the LDH with C57BL/6J mice [2] is 211.38 ± 46.99 ^b U/L. In addition, the “proportion of Akkermansia” value in the series on intestinal microflora is reported as “significantly reduced”.
